Data set [1] has as its system PBMC. Put plainly: Cytotoxicity against human PBMC cells. In kind it is cell-based. To be noted: pbmc.
In data set [2] the test system is Hepatitis C virus. Put plainly: Antiviral activity against HCV in human Huh7 cells by RNA replicon assay. In kind it is functional, organism-based, Hepacivirus hominis. To be noted: Huh-7. (Replicon systems follow genome replication, usually without infectious particles.)
The test system of data set [3] is Vero. Put plainly: Cytotoxicity against african green monkey Vero cells. Conditions: chlorocebus sabaeus, vero. In kind it is cell-based.
Data set [4] relates to Human immunodeficiency virus. Put plainly: Antiviral activity against HIV in human PBM cells. To be noted: Human immunodeficiency virus 1, PBMC.
Data set [5] has as its system CCRF-CEM. Put plainly: Cytotoxicity against human CEM cells. Conditions: ccrf-cem. Type of data set: cell-based.

We go through 28 compounds from ChEMBL document CHEMBL1154160, “Synthesis, antiviral activity, and stability of nucleoside analogs containing tricyclic bases” (Eur J Med Chem, 2009).

pEC50: −log10 of the molar value.

The term CC50 denotes the concentration that lowers cell viability or growth by half. In general, pEC50 refers to the EC50 on a negative log10 scale, so that one unit is a factor of ten. As a reminder, the EC90 is the concentration needed for an effect of 90%. Consider `O=c1c2ncn([C@H]3C=C[C@@H](CO)C3)c2nc2[nH]c(-c3ccc(Br)cc3)cn12`, for which the CC50 in data set [1], in data set [3] and in data set [5] was greater than 100 µM each time. Moreover, the figures for the pEC50 in data set [2] and in data set [4] were less than 5.00 and 4.91, respectively. Further, the EC90 in data set [2] is greater than 10 µM; in data set [4], 43.2 µM.

As to `O=c1c2ncn([C@H]3C=C[C@@H](CO)C3)c2nc2[nH]c(-c3ccsc3)cn12`, the CC50 in data set [1], in data set [3] and in data set [5] was greater than 100 µM throughout. In addition, the figures for the pEC50 in data set [2] and in data set [4] were less than 5.00 and 5.59, respectively. The EC90 was greater than 10 µM in data set [2] and 15.5 µM in data set [4].

For `N#Cc1ccc(-c2cn3c(=O)c4ncn([C@H]5CO[C@@H](CO)O5)c4nc3[nH]2)cc1`, the CC50 in data set [1], in data set [3] and in data set [5] was greater than 100 µM in each case. In addition, the pEC50 was less than 5.00 in data set [2] and 4.16 in data set [4]. Moreover, the EC90 is greater than 10 µM in data set [2] and greater than 100 µM in data set [4].

Regarding `O=c1c2ncn([C@H]3CO[C@@H](CO)O3)c2nc2[nH]c(-c3ccc(Cl)cc3)cn12`, the CC50 in data set [1], in data set [3] and in data set [5] was greater than 100 µM throughout. Further, the pEC50 in data set [2] is less than 5.00; in data set [4] it was less than 4.00. The EC90 is greater than 10 µM in data set [2] and greater than 100 µM in data set [4].

As for `O=c1c2ncn([C@H]3CO[C@@H](CO)O3)c2nc2[nH]c(-c3cccs3)cn12`, the CC50 in data set [1], in data set [3] and in data set [5] was greater than 100 µM each time. The pEC50 in data set [2] was less than 5.00; in data set [4], 5.52. In addition, the EC90 in data set [2] was greater than 10 µM; in data set [4] it was 16 µM.

Consider `Nc1nc2c(ncn2[C@H]2CO[C@@H](CO)O2)c(=O)[nH]1`, for which the half-maximal cytotoxic concentration (CC50) in data set [1], in data set [3] and in data set [5] was greater than 100 µM each time. Moreover, the pEC50 in data set [2] was less than 5.00; in data set [4] it was 6.29. In addition, the EC90 in data set [2] was greater than 10 µM; in data set [4], 2.4 µM.

On to `COc1cccc(-c2cn3c(=O)c4ncn([C@H]5CO[C@@H](CO)O5)c4nc3[nH]2)c1`, for which the CC50 in data set [1], in data set [3] and in data set [5] was greater than 100 µM throughout. Moreover, the pEC50 is less than 5.00 in data set [2] and 4.68 in data set [4]. Besides, the EC90 in data set [2] is greater than 10 µM; in data set [4], 89.6 µM.

Take `C[C@@]1(O)[C@H](O)[C@@H](CO)O[C@H]1n1cnc2c(=O)n3cc(-c4cccs4)[nH]c3nc21`: the results for the CC50 in data set [1], in data set [3] and in data set [5] were greater than 100 µM, 44.3 µM and greater than 100 µM, respectively. The values for the pEC50 in data set [2] and in data set [4] were 5.16 and less than 4.00, respectively. Also, the concentration for an effect of 90% (EC90) in data set [2] is 25.6 µM; in data set [4], greater than 100 µM.

For the compound `C[C@@]1(O)[C@H](O)[C@@H](CO)O[C@H]1n1cnc2c(=O)n3cc(-c4ccsc4)[nH]c3nc21`, the CC50 in data set [1], in data set [3] and in data set [5] was greater than 100 µM throughout. Moreover, the pEC50 was no more than 5.00 in data set [2] and less than 4.00 in data set [4]. Moreover, the values for the EC90 in data set [2] and in data set [4] were greater than 10 µM and greater than 100 µM, respectively.

With `CCN(CC)c1ccc(-c2cn3c(=O)c4ncn([C@H]5C=C[C@@H](CO)C5)c4nc3[nH]2)cc1`, the CC50 in data set [1], in data set [3] and in data set [5] was greater than 100 µM throughout. The figures for the pEC50 in data set [2] and in data set [4] were less than 5.00 and 6.89, respectively. The values for the EC90 in data set [2] and in data set [4] were greater than 10 µM and 0.65 µM, respectively.

For `CN(C)c1ccc(-c2cn3c(=O)c4ncn([C@H]5C=C[C@@H](CO)C5)c4nc3[nH]2)cc1`, the CC50 in data set [1] was 24 µM; in data set [3], greater than 100 µM; in data set [5] it was greater than 100 µM. Further, the pEC50 was less than 5.00 in data set [2] and 6.96 in data set [4]. The EC90 in data set [2] was greater than 10 µM; in data set [4], 0.47 µM.

On to `O=c1c2ncn([C@H]3CO[C@@H](CO)O3)c2nc2[nH]c(-c3ccc(F)cc3)cn12`, for which the CC50 in data set [1], in data set [3] and in data set [5] was greater than 100 µM throughout. Further, the values for the pEC50 in data set [2] and in data set [4] were less than 5.00 and 4.36, respectively. Also, the EC90 in data set [2] was greater than 10 µM; in data set [4], greater than 100 µM.

Regarding `O=c1c2ncn([C@H]3C=C[C@@H](CO)C3)c2nc2[nH]c(-c3cccs3)cn12`, the cytotoxic concentration (CC50) in data set [1], in data set [3] and in data set [5] was greater than 100 µM in each case. In addition, the results for the pEC50 in data set [2] and in data set [4] were less than 5.00 and 6.19, respectively. The EC90 in data set [2] is greater than 10 µM; in data set [4], 7.1 µM.

In the case of `COc1ccc(-c2cn3c(=O)c4ncn([C@H]5CO[C@@H](CO)O5)c4nc3[nH]2)cc1`, the CC50 in data set [1], in data set [3] and in data set [5] was greater than 100 µM in each case. In addition, the negative-log EC50 (pEC50) is less than 5.00 in data set [2] and 5.46 in data set [4]. Also, the results for the EC90 in data set [2] and in data set [4] were greater than 10 µM and 23.9 µM, respectively.

As for `CN(C)c1ccc(-c2cn3c(=O)c4ncn([C@H]5CO[C@@H](CO)O5)c4nc3[nH]2)cc1`, the CC50 in data set [1], in data set [3] and in data set [5] was greater than 100 µM each time. For the same compound, the pEC50 in data set [2] was less than 5.00; in data set [4] it was 6.21. Moreover, the values for the EC90 in data set [2] and in data set [4] were greater than 10 µM and 1.5 µM, respectively.

In the case of `COc1ccc(-c2cn3c(=O)c4ncn([C@H]5C[C@H](N=[N+]=[N-])[C@@H](CO)O5)c4nc3[nH]2)cc1`, the values for the CC50 in data set [1], in data set [3] and in data set [5] were 56.7 µM, greater than 100 µM and 13.5 µM, respectively. For the same compound, the pEC50 is less than 5.00 in data set [2] and 5.89 in data set [4]. In addition, the 90% effect concentration (EC90) in data set [2] is greater than 10 µM; in data set [4], 7 µM.

For `CN(C)c1ccc(-c2cn3c(=O)c4ncn([C@H]5C[C@H](N=[N+]=[N-])[C@@H](CO)O5)c4nc3[nH]2)cc1`, the CC50 in data set [1] was greater than 100 µM; in data set [3] it was greater than 100 µM; in data set [5], 74.6 µM. Further, the values for the pEC50 in data set [2] and in data set [4] were less than 5.00 and 6.85, respectively. For the same compound, the EC90 in data set [2] is greater than 10 µM; in data set [4], 0.54 µM.

For the compound `Cc1ccc(-c2cn3c(=O)c4ncn([C@H]5CO[C@@H](CO)O5)c4nc3[nH]2)cc1`, the CC50 in data set [1], in data set [3] and in data set [5] was greater than 100 µM in each case. Besides, the pEC50 is less than 5.00 in data set [2] and 5.31 in data set [4]. For the same compound, the EC90 in data set [2] was greater than 10 µM; in data set [4], 23.9 µM.

Regarding `CCc1cn2c(=O)c3ncn([C@H]4CO[C@@H](CO)O4)c3nc2[nH]1`, the CC50 in data set [1], in data set [3] and in data set [5] was greater than 100 µM throughout. Further, the figures for the pEC50 in data set [2] and in data set [4] were less than 5.00 and 4.50, respectively. Also, the EC90 was greater than 10 µM in data set [2] and greater than 100 µM in data set [4].

As for `O=c1c2ncn([C@H]3CO[C@@H](CO)O3)c2nc2[nH]c(-c3ccsc3)cn12`, the CC50 in data set [1], in data set [3] and in data set [5] was greater than 100 µM in each case. The results for the negative-log EC50 (pEC50) in data set [2] and in data set [4] were less than 5.00 and 6.04, respectively. In addition, the results for the 90% effect concentration (EC90) in data set [2] and in data set [4] were greater than 10 µM and 6.6 µM, respectively.

As to `[N-]=[N+]=N[C@H]1C[C@H](n2cnc3c(=O)n4cc(-c5ccccc5)[nH]c4nc32)O[C@@H]1CO`, the CC50 in data set [1] was 69.6 µM; in data set [3] it was greater than 100 µM; in data set [5] it was 21.8 µM. Also, the results for the pEC50 in data set [2] and in data set [4] were less than 5.00 and 5.08, respectively. In addition, the EC90 is greater than 10 µM in data set [2] and 94.1 µM in data set [4].

Take `CCN(CC)c1ccc(-c2cn3c(=O)c4ncn([C@H]5CO[C@@H](CO)O5)c4nc3[nH]2)cc1`: the CC50 in data set [1] is greater than 100 µM; in data set [3] it was 63 µM; in data set [5] it was 80.8 µM. The pEC50 was less than 5.00 in data set [2] and 6.60 in data set [4]. For the same compound, the values for the EC90 in data set [2] and in data set [4] were greater than 10 µM and 1.25 µM, respectively.

On to `O=c1c2ncn([C@H]3CO[C@@H](CO)O3)c2nc2[nH]c(-c3ccccc3)cn12`, for which the CC50 in data set [1], in data set [3] and in data set [5] was greater than 100 µM in each case. In addition, the pEC50 was less than 5.00 in data set [2] and 5.15 in data set [4]. In addition, the EC90 in data set [2] was greater than 10 µM; in data set [4], 43.5 µM.

Turning to `COc1ccc(-c2cn3c(=O)c4ncn([C@@H]5O[C@H](CO)[C@@H](O)[C@@]5(C)O)c4nc3[nH]2)cc1`, the CC50 in data set [1], in data set [3] and in data set [5] was greater than 100 µM throughout. Further, the pEC50 was no more than 5.00 in data set [2] and less than 4.00 in data set [4]. The EC90 in data set [2] is greater than 10 µM; in data set [4], greater than 100 µM.

Take `Cc1ccc(-c2cn3c(=O)c4ncn([C@H]5C=C[C@@H](CO)C5)c4nc3[nH]2)cc1`: the CC50 in data set [1], in data set [3] and in data set [5] was greater than 100 µM throughout. Moreover, the pEC50 in data set [2] is less than 5.00; in data set [4] it was 5.30. The values for the EC90 in data set [2] and in data set [4] were greater than 10 µM and 30.1 µM, respectively.

Regarding `COc1ccc(-c2cn3c(=O)c4ncn([C@H]5C=C[C@@H](CO)C5)c4nc3[nH]2)cc1`, the CC50 in data set [1], in data set [3] and in data set [5] was greater than 100 µM in each case. Moreover, the pEC50 in data set [2] was less than 5.00; in data set [4], 6.21. The EC90 was greater than 10 µM in data set [2] and 4.9 µM in data set [4].

For the compound `Nc1nc2c(ncn2[C@H]2C=C[C@@H](CO)C2)c(=O)[nH]1` [CARBOVIR], the CC50 in data set [1] is 7 µM; in data set [3], greater than 100 µM; in data set [5], greater than 100 µM. In addition, the pEC50 is less than 5.00 in data set [2] and 7.37 in data set [4]. Besides, the EC90 in data set [2] was greater than 10 µM; in data set [4], 0.29 µM.

Take `CN(C)c1ccc(-c2cn3c(=O)c4ncn([C@@H]5O[C@H](CO)[C@@H](O)[C@@]5(C)O)c4nc3[nH]2)cc1`: the half-maximal cytotoxic concentration (CC50) in data set [3] and in data set [5] was greater than 100 µM in each case.
